Reference: patent US20080300253A1, “TREATMENT OF INFLAMMATORY DISORDERS WITH PRAZIQUANTEL” (Gencross, Inc., priority 2005, published 2008)
Like-named read-outs stand apart in the source and are kept apart here.

How the values were obtained:
ATF-2 [1] = test: Phosphorylated ATF-2 in LPS-treated differentiated THP-1 cells (Western blotting); format: cell-based, human; settings: 2 μg/ml LPS + 100 nM praziquantel vs LPS alone
Procedure: (§1) The THP-1 human monocytic cell line was treated with 200 nM phorbol myristate acetate (PMA) for 24 hours, resulting in differentiation into functional macrophages. Differentiated THP-1 cells were treated with 2 μg/ml lipopolysaccharide (LPS), and total proteins or nuclear proteins were isolated 0.5, 1, 2, and 3 hours later. In some differentiated THP-1 cell cultures, a combination of LPS and 100 nM praziquantel was added prior to isolation of total and nuclear proteins at the same time points. Both total protein and nuclear protein were quantitated by Western blotting. […] Thus, praziquantel inhibits LPS-induced NF-κB activity by preventing its translocation to the nucleus where it exerts its transcriptional activation effects. Neither α-tubulin nor lamin B protein was affected by either LPS or praziquantel treatment (FIG. 1).

IKK-β = IKK-β phosphorylation in blood mononuclear cells of LPS/D-galactosamine-treated mice (western blotting); format: in vivo; settings: 50 mg/kg oral 30 minutes prior to LPS/D-galactosamine; blood 3 hours later
Procedure: (§2) Mice were orally administered 50 mg/kg praziquantel 30 minutes prior to ip injection of 8 ng LPS and 8 mg D-galactosamine. Blood samples were taken 3 hours later, and mononuclear cells were isolated using Histopaque (Sigma Aldrich, cat #1080). Protein levels and their phosphorylation states were then determined by western blotting. […] The amount of IKK-α and IKK-β proteins and their phosphorylation states were also examined. […] IKK-α and IKK-β are known to phosphorylate IκB, and phosphorylated IκB is degraded by a protease.

[2] = system: LPS/D-galactosamine-induced acute sepsis; test: Survival of LPS/D-galactosamine-treated mice (acute sepsis); format: in vivo, C57BL6 mice
Procedure: An acute mouse in vivo sepsis model was used to determine the ability of praziquantel to reduce TNF-α levels. C57BL/6 mice were used which were 7 to 8 weeks old and weighed 25 to 30 g. Fodder (Daehan Biolink) and water were administered ad libitum, and the temperature and relative humidity of the nursery cage were maintained at 21-24° C. and 40-80%, respectively. In addition, the nursery cage light was controlled to switch between day and night every 12 hours. Eight to ten mice were assigned to each experimental group. Each mouse was intraperitoneally (ip) administered 8 ng LPS (Sigma Aldrich) and 8 mg D-galactosamine (SIGMA), each dissolved in 100 μl distilled water, to induce acute sepsis. In order to investigate the effect of praziquantel on TNF-α levels in blood, praziquantel was orally administered to each experimental group at dosages of 12.5 mg/kg, 25 mg/kg or 50 mg/kg, 30 minutes prior to treatment with LPS/D-galactosamine. The blood was sampled 1, 3 and 5 hours after treatment with praziquantel. Serum was isolated from the sampled blood, and the amount of TNF-α was measured by ELISA (R&D Systems, Minneapolis, Minn.).
Female C57BL6 mice (8-10 per experimental group) were treated as described above to induce acute sepsis, and the same doses of praziquantel were administered 30 minutes prior to treatment with LPS/D-galactosamine.

[3] = rats; cited from earlier work
[4] = cats dosed with 100 mg/kg; cited from earlier work
NF-κB = NF-κB total level and nuclear translocation in LPS-treated differentiated THP-1 cells (Western blotting); format: cell-based, human; settings: 2 μg/ml LPS + 100 nM praziquantel
Procedure: as §1

p38 kinase = p38 kinase amount and phosphorylation in blood mononuclear cells of LPS/D-galactosamine-treated mice (western blotting); format: in vivo; settings: 50 mg/kg oral 30 minutes prior to LPS/D-galactosamine; blood 3 hours later
Procedure: (§3) Mice were orally administered 50 mg/kg praziquantel 30 minutes prior to ip injection of 8 ng LPS and 8 mg D-galactosamine. Blood samples were taken 3 hours later, and mononuclear cells were isolated using Histopaque (Sigma Aldrich, cat #1080). Protein levels and their phosphorylation states were then determined by western blotting.

TNF-α [5] = test: Mouse collagen-induced arthritis model: serum TNF-α; format: in vivo, DBA/1 mice; settings: 50 mg/kg oral suspension in saline, once or twice a day for three weeks; vs vehicle
Procedure: (§4) Male DBA/1 mice, obtained from the Jackson Laboratory, are maintained in groups of three to five in polycarbonate cages and fed standard mouse chow and water ad libitum. The environment is made specifically pathogen-free. Mice are immunized with bovine type II collagen (CII), at 8 to 12 weeks of age, as described previously (Arthritis Rheum. 2002, 46:1109, 2002; J. Immunol., 5846, 2005). Briefly, CII is dissolved in 0.05N acetic acid at 2 mg/ml, and emulsified (1:1 ratio) with complete Freund's adjuvant (CFA) at 4° C. The mice receive 0.1 ml of the emulsion, containing 100 μg of CII, in the base of the tail as a primary immunization. Booster injections are given into the footpad with 50 μg of CII, similarly dissolved and emulsified with CFA (1:1), 14 days after the primary immunization. CIA develops as early as 3 wk, peaks at 5-7 wk, and thereafter spontaneously resolves at 10 wk. Mice are divided into two groups. One group is administered vehicle (saline), and the other group is administered an oral suspension of 50 mg/kg praziquantel in saline starting 2 weeks after the CII booster injection. Praziquantel administration is continued once or twice a day for three weeks after the initial administration.
(§5) TNF-α and p38 levels in blood are then assayed as described above, and the incidence and severity of arthritis in the two groups of mice are determined by visual inspection.

TNF-α [6] = test: TNF-α amount in LPS-treated differentiated THP-1 cells (Western blotting); format: cell-based, human
Procedure: as §1

p38 [7] = test: Mouse collagen-induced arthritis model: serum p38; format: in vivo, DBA/1 mice; settings: 50 mg/kg oral suspension in saline, once or twice a day for three weeks; vs vehicle
Procedure: as §4, §5

[8] = dogs dosed with 100 mg/kg; cited from earlier work
IKK-α = IKK-α phosphorylation in blood mononuclear cells of LPS/D-galactosamine-treated mice (western blotting); format: in vivo; settings: 50 mg/kg oral 30 minutes prior to LPS/D-galactosamine; blood 3 hours later
Procedure: as §2

ATF-2 [9] = test: ATF-2 phosphorylation in blood mononuclear cells of LPS/D-galactosamine-treated mice (western blotting); format: in vivo; settings: 50 mg/kg oral 30 minutes prior to LPS/D-galactosamine; blood 3 hours later
Procedure: as §3

TNF-α [10] = test: Serum TNF-α (ELISA) in acute mouse sepsis model (LPS/D-galactosamine); format: in vivo, C57BL/6 mice; settings: 12.5, 25 or 50 mg/kg oral, 30 minutes prior to LPS/D-galactosamine
IκB = IκB amount and phosphorylation in blood mononuclear cells of LPS/D-galactosamine-treated mice (western blotting); format: in vivo; settings: 50 mg/kg oral 30 minutes prior to LPS/D-galactosamine; blood 3 hours later
Procedure: as §2

IKK α/β = test: Phosphorylated IKK α/β in LPS-treated differentiated THP-1 cells (Western blotting); format: cell-based, human; settings: 2 μg/ml LPS + 100 nM praziquantel vs LPS alone
Procedure: as §1

[11] = system: collagen-induced arthritis; test: Mouse collagen-induced arthritis model: severity of arthritis by visual inspection; format: in vivo, DBA/1 mice; settings: 50 mg/kg oral suspension in saline, once or twice a day for three weeks; vs vehicle
Procedure: as §4, §5

p38 [12] = test: Phosphorylated p38 in LPS-treated differentiated THP-1 cells (Western blotting); format: cell-based, human; settings: 2 μg/ml LPS + 100 nM praziquantel vs LPS alone
Procedure: as §1

O=C(C1CCCCC1)N1CC(=O)N2CCc3ccccc3C2C1 (stereo not drawn) [Praziquantel, 2-(cyclohexylcarbonyl)-1,2,3,6,7,11β-hexahydro-4H-pyrazino[2,1-α]isoquinoline-4-one]
active (phosphorylated) form of ATF-2 (ATF-2 [1]): Significant reductions
phosphorylation of IKK-β (IKK-β): inhibited
Survival (# of mice) ([2]; 12.5 mg/kg oral, 0 h): (30/30)
Survival rate ([2]; 12.5 mg/kg oral, 0 h): 100%
Survival (# of mice) ([2]; 12.5 mg/kg oral, 5 h): (30/30)
Survival rate ([2]; 12.5 mg/kg oral, 5 h): 100%
Survival (# of mice) ([2]; 12.5 mg/kg oral, 6 h): (26/30)
Survival rate ([2]; 12.5 mg/kg oral, 6 h): 86%
Survival (# of mice) ([2]; 12.5 mg/kg oral, 7 h): (17/30)
Survival rate ([2]; 12.5 mg/kg oral, 7 h): 57%
Survival (# of mice) ([2]; 12.5 mg/kg oral, 8 h): (15/30)
Survival rate ([2]; 12.5 mg/kg oral, 8 h): 50%
Survival (# of mice) ([2]; 12.5 mg/kg oral, 9 h): (13/30)
Survival rate ([2]; 12.5 mg/kg oral, 9 h): 43%
Survival (# of mice) ([2]; 12.5 mg/kg oral, 10 h): (4/30)
Survival rate ([2]; 12.5 mg/kg oral, 10 h): 14%
Survival (# of mice) ([2]; 12.5 mg/kg oral, 11 h): (4/30)
Survival rate ([2]; 12.5 mg/kg oral, 11 h): 14%
Survival (# of mice) ([2]; 12.5 mg/kg oral, 12 h): (4/30)
Survival rate ([2]; 12.5 mg/kg oral, 12 h): 14%
Survival (# of mice) ([2]; 12.5 mg/kg oral, >24 h): (4/30)
Survival rate ([2]; 12.5 mg/kg oral, >24 h): 14%
Survival (# of mice) ([2]; 25 mg/kg oral, 0 h): (30/30)
Survival rate ([2]; 25 mg/kg oral, 0 h): 100%
Survival (# of mice) ([2]; 25 mg/kg oral, 5 h): (30/30)
Survival rate ([2]; 25 mg/kg oral, 5 h): 100%
Survival (# of mice) ([2]; 25 mg/kg oral, 6 h): (28/30)
Survival rate ([2]; 25 mg/kg oral, 6 h): 93%
Survival (# of mice) ([2]; 25 mg/kg oral, 7 h): (21/30)
Survival rate ([2]; 25 mg/kg oral, 7 h): 71%
Survival (# of mice) ([2]; 25 mg/kg oral, 8 h): (21/30)
Survival rate ([2]; 25 mg/kg oral, 8 h): 71%
Survival (# of mice) ([2]; 25 mg/kg oral, 9 h): (21/30)
Survival rate ([2]; 25 mg/kg oral, 9 h): 71%
Survival (# of mice) ([2]; 25 mg/kg oral, 10 h): (21/30)
Survival rate ([2]; 25 mg/kg oral, 10 h): 71%
Survival (# of mice) ([2]; 25 mg/kg oral, 11 h): (21/30)
Survival rate ([2]; 25 mg/kg oral, 11 h): 71%
Survival (# of mice) ([2]; 25 mg/kg oral, 12 h): (19/30)
Survival rate ([2]; 25 mg/kg oral, 12 h): 64%
Survival (# of mice) ([2]; 25 mg/kg oral, >24 h): (19/30)
Survival rate ([2]; 25 mg/kg oral, >24 h): 64%
Survival (# of mice) ([2]; 50 mg/kg oral, 0 h): (30/30)
Survival rate ([2]; 50 mg/kg oral, 0 h): 100%
Survival (# of mice) ([2]; 50 mg/kg oral, 5 h): (30/30)
Survival rate ([2]; 50 mg/kg oral, 5 h): 100%
Survival (# of mice) ([2]; 50 mg/kg oral, 6 h): (28/30)
Survival rate ([2]; 50 mg/kg oral, 6 h): 93%
Survival (# of mice) ([2]; 50 mg/kg oral, 7 h): (28/30)
Survival rate ([2]; 50 mg/kg oral, 7 h): 93%
Survival (# of mice) ([2]; 50 mg/kg oral, 8 h): (28/30)
Survival rate ([2]; 50 mg/kg oral, 8 h): 93%
Survival (# of mice) ([2]; 50 mg/kg oral, 9 h): (28/30)
Survival rate ([2]; 50 mg/kg oral, 9 h): 93%
Survival (# of mice) ([2]; 50 mg/kg oral, 10 h): (28/30)
Survival rate ([2]; 50 mg/kg oral, 10 h): 93%
Survival (# of mice) ([2]; 50 mg/kg oral, 11 h): (28/30)
Survival rate ([2]; 50 mg/kg oral, 11 h): 93%
Survival (# of mice) ([2]; 50 mg/kg oral, 12 h): (28/30)
Survival rate ([2]; 50 mg/kg oral, 12 h): 93%
Survival (# of mice) ([2]; 50 mg/kg oral, >24 h): (28/30)
Survival rate ([2]; 50 mg/kg oral, >24 h): 93%
LD50 [3]: 2,000-3,000 mg/kg
adverse effects [4]: No adverse effects
total NF-κB levels (NF-κB): not affected
translocation of NF-κB to the nucleus (NF-κB; nuclear fraction): did not occur
amount of p38 protein (p38 kinase): did not change
phosphorylation of p38 kinase (p38 kinase): inhibited
serum levels of TNF-α (TNF-α [5]): significantly reduced
amount of TNF-α (TNF-α [6]; 2 μg/ml LPS + 100 nM praziquantel vs LPS alone, one, two and three hours): much less TNF-α
amount of TNF-α (TNF-α [6]; 2 μg/ml LPS + 100 nM praziquantel, two and three hour time points): barely detectable
serum levels of p38 (p38 [7]): significantly reduced
adverse effects [8]: No adverse effects
phosphorylation of IKK-α (IKK-α): inhibited
phosphorylation of ATF-2 (ATF-2 [9]): inhibited
amount of TNF-α in blood serum (TNF-α [10]): dose-dependent decrease
amount of IκB protein (IκB): did not decrease
phosphorylation of IκB (IκB): inhibited
active (phosphorylated) form of IKK α/β (IKK α/β): Significant reductions
severity of arthritis [11]: greatly reduced
active (phosphorylated) form of p38 (p38 [12]): Significant reductions
